Patent US11124507B2, “1H-pyrrolopyridine compound, N-oxide thereof or salt thereof, agricultural and horticultural insecticide comprising the compound, and method for using the insecticide” (Nihon Nohyaku Co., Ltd., priority 2016, dated 2021)
Counter-ions that a name gives are not always drawn. Like-named read-outs stand apart in the source and are kept apart here.

Assays:
Assay type in all cases: in vivo
Myzus persicae = assay: Test for control efficacy on Myzus persicae (foliar application, Chinese cabbage); conditions: 144 h, foliar application to potted Chinese cabbage plants, 6 days after application, read-out: control efficacy (control rate), activity level
Description: Test for control efficacy on Myzus persicae Chinese cabbage plants were planted in plastic pots (diameter: 8 cm, height: 8 cm), Green peach aphids (Myzus persicae) were propagated on the plants, and the number of surviving Green peach aphids in each pot was counted. The condensed heterocyclic compounds represented by the general formula (1) of the present invention or salts thereof were separately dispersed in water and diluted to 500 ppm. The agrochemical dispersions were applied to the foliage of the potted Chinese cabbage plants. After the plants were air-dried, the pots were kept in a greenhouse. At 6 days after the foliar application, the number of surviving Green peach aphids on the Chinese cabbage plant in each pot was counted, the control rate was calculated according to the formula shown below, and the control efficacy was evaluated according to the criteria shown below. Control rate=100−{(T×Ca)/(Ta×C)}×100 [Math. 1] Ta: the number of survivors before the foliar application in a treatment plot T: the number of survivors after the foliar application in a treatment plot Ca: the number of survivors before the foliar application in a non-treatment plot C: the number of survivors after the foliar application in a non-treatment plot Criteria A: the control rate is 100%. B: the control rate is 90 to 99%. C: the control rate is 80 to 89%. D: the control rate is 50 to 79%.

Laodelphax striatellus = assay: Insecticidal test on Laodelphax striatellus (rice seedling dip); conditions: 192 h, read-out: insecticidal efficacy (corrected mortality rate), activity level
Description: Insecticidal Test on Laodelphax striatellus
The condensed heterocyclic compounds represented by the general formula (1) of the present invention or salts thereof were separately dispersed in water and diluted to 500 ppm. Rice plant seedlings (variety: Nihonbare) were dipped in the agrochemical dispersions for 30 seconds. After air-dried, each seedling was put into a separate glass test tube and inoculated with ten 3rd-instar larvae of Laodelphax striatellus, and then the glass test tubes were capped with cotton plugs. At 8 days after the inoculation, the numbers of surviving larvae and dead larvae were counted, the corrected mortality rate was calculated according to the formula shown below, and the insecticidal efficacy was evaluated according to the criteria shown below. Corrected mortality rate (%)=100×(Survival rate in a non-treatment plot−Survival rate in a treatment plot)/Survival rate in a non-treatment plot [Math. 2] Corrected Mortality Rate A: the corrected mortality rate is 100%.

Plutella xylostella = assay: Insecticidal test on Plutella xylostella (dip of Chinese cabbage seedlings with laid eggs); conditions: 144 h
Description: Insecticidal Test on Plutella xylostella
Adults of Plutella xylostella were released onto Chinese cabbage seedlings and allowed to lay eggs thereon. […] After air-dried, the seedlings were kept in a thermostatic chamber at 25° C. […] This test was conducted in triplicate using 10 adults of Plutella xylostella per plot. Corrected mortality rate (%)=100×(Number of hatched larvae in a non-treatment plot−Number of hatched larvae in a treatment plot)/Number of hatched larvae in a non-treatment plot [Math. 3]

[1] = 500 ppm, rice seedlings dipped 30 seconds, ten 3rd-instar larvae, 8 days after inoculation
[2] = 500 ppm, seedlings with laid eggs dipped about 30 seconds, 25° C., 6 days after dip treatment, criteria of Test Example 2, read-out: insecticidal efficacy (corrected mortality rate), activity level
[3] = read-out: insecticidal efficacy (corrected mortality rate), activity level

CCS(=O)(=O)c1cc2cc(Cl)ccc2nc1-c1cc2ncc(C(F)(F)F)cc2[nH]1 [Compound 4-3, 2-(6-chloro-3-ethylsulfonyl-quinolin-2-yl)-6-trifluoromethyl-1H-pyrrolo[3,2-b]pyridine trifluoroacetate]
100%: pest or weed control at 500 ppm (Myzus persicae) | mortality at 500 ppm (Laodelphax striatellus; [1]) | mortality at 500 ppm (Plutella xylostella; [2])

CCOC(=O)Nc1ccc2cc(S(=O)(=O)CC)c(-c3c(F)c4ncc(C(F)(F)F)cc4n3C(=O)OC(C)(C)C)nc2c1 [Compound 2-49, 1-(tert-butoxycarbonyl)-2-(7-ethoxycarbonylamino-3-ethylsulfonyl-quinolin-2-yl)-3-fluoro-6-trifluoromethyl-1H-pyrrolo[3,2-b]pyridine]
100%: pest or weed control at 500 ppm (Myzus persicae) | mortality at 500 ppm (Laodelphax striatellus) | mortality at 500 ppm (Plutella xylostella; [3])

CCS(=O)(=O)c1cc2cc(Cl)ccc2nc1-c1[nH]c2cc(C(F)(F)F)cnc2c1F [Compound 1-3, 2-(6-chloro-3-ethylsulfonyl-quinolin-2-yl)-3-fluoro-6-trifluoromethyl-1H-pyrrolo[3,2-b]pyridine]
100%: pest or weed control at 500 ppm (Myzus persicae) | mortality at 500 ppm (Laodelphax striatellus; [1]) | mortality at 500 ppm (Plutella xylostella; [2])

CCS(=O)(=O)c1cc2ccc(Br)cc2nc1-c1c(Cl)c2ncc(C(F)(F)F)cc2n1COC [Compound 2-65, 1-methoxymethyl-2-(7-bromo-3-ethylsulfonyl-quinolin-2-yl)-3-chloro-6-trifluoromethyl-1H-pyrrolo[3,2-b]pyridine]
100%: pest or weed control at 500 ppm (Myzus persicae) | mortality at 500 ppm (Laodelphax striatellus; [1]) | mortality at 500 ppm (Plutella xylostella; [2])

CCS(=O)(=O)c1cc2ccc(C=O)cc2nc1-c1c(Cl)c2ncc(C(F)(F)F)cc2n1C(=O)OC(C)(C)C [Compound 2-97, 1-(tert-butoxycarbonyl)-2-(7-formyl-3-ethylsulfonyl-quinolin-2-yl)-3-chloro-6-trifluoromethyl-1H-pyrrolo[3,2-b]pyridine]
100%: pest or weed control at 500 ppm (Myzus persicae) | mortality at 500 ppm (Laodelphax striatellus; [1]) | mortality at 500 ppm (Plutella xylostella; [2])

CCS(=O)(=O)c1cc2cc(Cl)ccc2nc1-c1c(F)c2ncc(C(F)(F)F)cc2n1C(C)=O [Compound 2-1, 1-acetyl-2-(6-chloro-3-ethylsulfonyl-quinolin-2-yl)-3-fluoro-6-trifluoromethyl-1H-pyrrolo[3,2-b]pyridine]
100%: pest or weed control at 500 ppm (Myzus persicae) | mortality at 500 ppm (Laodelphax striatellus; [1]) | mortality at 500 ppm (Plutella xylostella; [2])

C=Cc1ccc2cc(S(=O)(=O)CC)c(-c3c(Cl)c4ncc(C(F)(F)F)cc4n3C(=O)OC(C)(C)C)nc2c1 [Compound 2-98, 1-(tert-butoxycarbonyl)-2-(7-vinyl-3-ethylsulfonyl-quinolin-2-yl)-3-chloro-6-trifluoromethyl-1H-pyrrolo[3,2-b]pyridine]
100%: pest or weed control at 500 ppm (Myzus persicae) | mortality at 500 ppm (Laodelphax striatellus; [1]) | mortality at 500 ppm (Plutella xylostella; [2])

CCS(=O)(=O)c1cc2cc(Cl)ccc2nc1-c1[nH]c2cc(C(F)(F)F)cnc2c1Cl [Compound 1-44, 3-chloro-2-(6-chloro-3-ethylsulfonyl-quinolin-2-yl)-6-trifluoromethyl-1H-pyrrolo[3,2-b]pyridine]
100%: pest or weed control at 500 ppm (Myzus persicae) | mortality at 500 ppm (Laodelphax striatellus; [1]) | mortality at 500 ppm (Plutella xylostella; [2])

CCOC(=O)Nc1ccc2cc(S(=O)(=O)CC)c(-c3[nH]c4cc(C(F)(F)F)cnc4c3F)nc2c1 [Compound 1-13, 2-(7-ethoxycarbonylamino-3-ethylsulfonyl-quinolin-2-yl)-3-fluoro-6-trifluoromethyl-1H-pyrrolo[3,2-b]pyridine]
100%: pest or weed control at 500 ppm (Myzus persicae) | mortality at 500 ppm (Laodelphax striatellus) | mortality at 500 ppm (Plutella xylostella; [3])

CCSc1cc2cc(Cl)ccc2nc1-c1cc2ncc(C(F)(F)F)cc2n1C(=O)OC(C)(C)C [Compound 2-41, 1-(tert-butoxycarbonyl)-2-(6-chloro-3-ethylthio-quinolin-2-yl)-6-trifluoromethyl-1H-pyrrolo[3,2-b]pyridine]
100%: pest or weed control at 500 ppm (Myzus persicae) | mortality at 500 ppm (Laodelphax striatellus; [1]) | mortality at 500 ppm (Plutella xylostella; [2])

CCS(=O)(=O)c1cc2ccc(Br)cc2nc1-c1c(Cl)c2ncc(C(F)(F)F)cc2n1C(=O)OC(C)(C)C [Compound 2-61, 1-(tert-butoxycarbonyl)-2-(7-bromo-3-ethylsulfonyl-quinolin-2-yl)-3-chloro-6-trifluoromethyl-1H-pyrrolo[3,2-b]pyridine]
100%: pest or weed control at 500 ppm (Myzus persicae) | mortality at 500 ppm (Laodelphax striatellus; [1]) | mortality at 500 ppm (Plutella xylostella; [2])

CCS(=O)(=O)c1cc2cc(Cl)ccc2nc1-c1cc2ncc(C(F)(F)F)cc2n1C(=O)OC(C)(C)C [Compound 2-42, 1-(tert-butoxycarbonyl)-2-(6-chloro-3-ethylsulfonyl-quinolin-2-yl)-6-trifluoromethyl-1H-pyrrolo[3,2-b]pyridine]
100%: pest or weed control at 500 ppm (Myzus persicae) | mortality at 500 ppm (Laodelphax striatellus; [1]) | mortality at 500 ppm (Plutella xylostella; [2])
